Results on 42 molecules are retold here after patent publication US20220232831A1, “NOVEL NON-CODING HETEROCYCLIC AMINO ACIDS (NCHAA) AND THEIR USE AS HERBICIDES” (Fortephest Ltd., priority 2019, published 2022).

Where a SMILES comes first, the peptide text is derived from it. [ ]: non-standard residue; d: D form. ξ: configuration not given here. ξ3Thi = NC(Cc1ccsc1)C(=O)O

Assay [1] concerns Romaine lettuce (Lactuca sativa L.) plants. Nature of the assay: Post-emergency herbicidal activity on Romaine lettuce plants. The class given is in vivo. The note with it: Romaine lettuce at stage 2 to 3 leaves; compound in 0.1% Silwet, up to 0.5%; visual evaluation vs control plants. As to the method:
The tests were performed on Romaine lettuce (Lactuca sativa L.) plants at the stage 2 to 3 leaves. The plants were grown on 300 well trays packed with soil, well dimensions 2×2×5 cm. Each compound was dissolved in 0.1% water solution of agronomically acceptable surfactant Silwet to final concentrations ranging from 0.0% (Control) to 0.5%. Two weeks after the treatment the herbicidal effects of the respective test material were visually evaluated by a comparison with the control plants. In addition, the aboveground part of the plant was neatly cut and weighed (wet weight). Each test was performed on 20 to 40 plants. The degree of growth inhibition and damage was evaluated according to the parameters in Table 2. Plant development at 7, 14, and 21 DAA (days after application) were evaluated on a scale of 0 to 100, in which score 0 represents dead plants and score 100 represents healthy plants according to plant vigor, height, and leaf color. Each test included 20 to 40 plants.

In assay [2] the test system is Seeds of Lettuce R. (Super-Jericho). Kind of assay: Filter paper bioassay with lettuce seeds (germination and early plant development). The note with it: lettuce seeds on filter paper; 1, 0.1, 0.01, 0.001 mM; radicle and shoots assessed after 6 days. The class given is in vivo. The method, then:
Seeds of Lettuce R. (Super-Jericho, non-sterilized) were obtained from Ben Shahar Moshe Ltd., 99% purity.
Filter Paper Bioassays with Lettuce Seeds:
The protocol is following Bertin et al. 2009 and Movellan et al. 2014 with specified modifications as described below.
Seeds were placed on Whatman no. 1 filter paper (Whatman, Middlesex, U.K.) in Petri dishes (10 seeds per plate) supplemented with 2.0 ml of water (Control) or with a solution comprising 1 mM, 0.1 mM, 0.01 mM and 0.001 mM of test material. Petri dishes with seeds were placed in a tray at an angle of 45°. The trays were kept in dark for 48 hours and then transferred to the growth chamber (22° C., 0.045 mmol×m−2×s−1 photosynthetic photon flux density; 6/18 dark/light cycle) for additional 4 days. Each experiment was performed at least in two repeats. The development of radicle and shoots of experimental and control plants were visually assessed 6 days after the beginning of the test to determine Minimal Effective Concentration (MEC) of test material. In the context of the invention, MEC is defined as the lowest concentration level of a test material that caused deviation (absence of germination or malformation of radicle and shoots) from the plant's development in the Control group.

For `COCCOCCOC(=O)C(N)Cc1ccc(Br)nc1` (stereo not shown) [Code 674], the “post-emergency herbicidal activity (Activity Index: plant's development vs Control)” value in assay [1] is “Moderate (From 50 to 75)”. Moreover, in assay [2], the “Minimal Effective Concentration (MEC) as activity score, seeds germination & early plants development” value (“Minimal Effective Concentration (MEC)” below) is recorded as “Strong (0.1 mM)”.

For `NC(Cc1cnc[nH]c1=O)C(=O)O` (stereo not shown) [Code 646], the “post-emergency herbicidal activity (Activity Index: plant's development vs Control)” value in assay [1] is listed as “Weak (More than 75)”. Besides, the “Minimal Effective Concentration (MEC)” value in assay [2] is “Weak (More than 1 mM)”. `Nc1ccnc(CC(N)C(=O)O)c1` (stereo not shown) [Code 607]: the “post-emergency herbicidal activity (Activity Index: plant's development vs Control)” value in assay [1] is given as “Weak (More than 75)”. The “Minimal Effective Concentration (MEC)” value in assay [2] is “Weak (More than 1 mM)”. `NC(Cc1cc(=O)[nH]cn1)C(=O)O` (stereo not shown) [Code 645]: in assay [1], the “post-emergency herbicidal activity (Activity Index: plant's development vs Control)” value is on record as “Weak (More than 75)”. For the same molecule, the “Minimal Effective Concentration (MEC)” value in assay [2] was “Weak (More than 1 mM)”. Take `COCCOCCOC(=O)C(N)Cc1ccsc1` (stereo not shown) [Code 570]: in assay [1], the “post-emergency herbicidal activity (Activity Index: plant's development vs Control)” value was “Very Strong (From 15 to 25)”. The “Minimal Effective Concentration (MEC)” value in assay [2] is “Maximal (0.01 mM and less)”.

As for `NC(CP(=O)(O)O)c1ccsc1` (stereo not shown) [Code 563], the “post-emergency herbicidal activity (Activity Index: plant's development vs Control)” value in assay [1] is on record as “Weak (More than 75)”. In assay [2], the “Minimal Effective Concentration (MEC)” value is given as “Weak (More than 1 mM)”. Regarding `CCOC(=O)C(Cc1cc(Cl)oc1Cl)NC(C)=O` (stereo not shown) [Code 574], in assay [1], the “post-emergency herbicidal activity (Activity Index: plant's development vs Control)” value is “Moderate (From 50 to 75)”. Also, the “Minimal Effective Concentration (MEC)” value in assay [2] is recorded as “Strong (0.1 mM)”. Consider `N[C@@H](Cc1cncc(O)c1)C(=O)O` [Code 605], for which the “post-emergency herbicidal activity (Activity Index: plant's development vs Control)” value in assay [1] is on record as “Weak (More than 75)”. Besides, the “Minimal Effective Concentration (MEC)” value in assay [2] is recorded as “Weak (More than 1 mM)”. As to `COC(=O)C(N)CNS(=O)(=O)c1ccsc1` (stereo not shown) [Code 507], in assay [1], the “post-emergency herbicidal activity (Activity Index: plant's development vs Control)” value is given as “Weak (More than 75)”. The “Minimal Effective Concentration (MEC)” value in assay [2] is reported as “Weak (More than 1 mM)”. In the case of `Cn1cnnc1CC(N)C(=O)O` (stereo not shown) [Code 717], the “post-emergency herbicidal activity (Activity Index: plant's development vs Control)” value in assay [1] is recorded as “Weak (More than 75)”. Turning to `NC(Cc1ccnc(S)c1)C(=O)O` (stereo not shown) [Code 613], the “post-emergency herbicidal activity (Activity Index: plant's development vs Control)” value in assay [1] was “Weak (More than 75)”. Moreover, the “Minimal Effective Concentration (MEC)” value in assay [2] is reported as “Weak (More than 1 mM)”. The corresponding values for `NC(Cc1ccnc(Br)c1Br)C(=O)O` (stereo not shown) [Code 635] are “Weak (More than 75)” and “Weak (More than 1 mM)”. Consider `NC(CC1=NCSC1)C(=O)O` (stereo not shown) [Code 519], for which, in assay [1], the “post-emergency herbicidal activity (Activity Index: plant's development vs Control)” value is “Moderate (From 50 to 75)”. In assay [2], the “Minimal Effective Concentration (MEC)” value is “Maximal (0.01 mM and less)”. For the molecule `NC(Cc1ccc[nH]c1=O)C(=O)O` (stereo not shown) [Code 644], the “post-emergency herbicidal activity (Activity Index: plant's development vs Control)” value in assay [1] was “Weak (More than 75)”. The “Minimal Effective Concentration (MEC)” value in assay [2] is “Weak (More than 1 mM)”. With `Nc1cncc(CC(N)C(=O)O)c1` (stereo not shown) [Code 610], the “post-emergency herbicidal activity (Activity Index: plant's development vs Control)” value in assay [1] is listed as “Weak (More than 75)”. The “Minimal Effective Concentration (MEC)” value in assay [2] is listed as “Weak (More than 1 mM)”. As to `CCOC(=O)C(CN(C(=O)O)S(=O)(=O)c1cc(Cl)sc1Cl)NC(=O)O` (stereo not shown) [Code 526], the “post-emergency herbicidal activity (Activity Index: plant's development vs Control)” value in assay [1] is listed as “Weak (More than 75)”. Moreover, the “Minimal Effective Concentration (MEC)” value in assay [2] was “Weak (More than 1 mM)”.

With `Nc1nc(CC(N)C(=O)O)cs1` (stereo not shown) [Code 522], in assay [1], the “post-emergency herbicidal activity (Activity Index: plant's development vs Control)” value is on record as “Weak (More than 75)”. Besides, in assay [2], the “Minimal Effective Concentration (MEC)” value is listed as “Weak (More than 1 mM)”. In the case of `O=C1C=C(CC(NP(=O)(O)O)C(=O)O)C(=O)S1` (stereo not shown) [Code 565], the “post-emergency herbicidal activity (Activity Index: plant's development vs Control)” value in assay [1] was “Weak (More than 75)”. Moreover, in assay [2], the “Minimal Effective Concentration (MEC)” value is reported as “Strong (0.1 mM)”. On to `CCOC(=O)C(Cc1cc(Cl)sc1Cl)NC(C)=O` (stereo not shown) [Code 573], for which the “post-emergency herbicidal activity (Activity Index: plant's development vs Control)” value in assay [1] is given as “Maximal (Less than 15)”. Also, the “Minimal Effective Concentration (MEC)” value in assay [2] is “Strong (0.1 mM)”. On to `COC(=O)C(Cc1ccc(Br)nc1)NC(C)=O` (stereo not shown) [Code 672], for which the “post-emergency herbicidal activity (Activity Index: plant's development vs Control)” value in assay [1] is “Moderate (From 50 to 75)”. Also, the “Minimal Effective Concentration (MEC)” value in assay [2] is recorded as “Strong (0.1 mM)”.

As for `NC(Cc1cc(Br)sc1Br)C(=O)O` (stereo not shown) [Code 552], in assay [1], the “post-emergency herbicidal activity (Activity Index: plant's development vs Control)” value is given as “Maximal (Less than 15)”. The “Minimal Effective Concentration (MEC)” value in assay [2] was “Moderate (1 mM)”. As to `Cl.Cl.Cn1ncnc1CC(N)C(=O)O` (stereo not shown) [Code 770], in assay [1], the “post-emergency herbicidal activity (Activity Index: plant's development vs Control)” value was “Weak (More than 75)”. Turning to `C[n+]1cncc(CC(N)C(=O)O)c1` (stereo not shown) [Code 676], in assay [1], the “post-emergency herbicidal activity (Activity Index: plant's development vs Control)” value was “Very Strong (From 15 to 25)”. In addition, the “Minimal Effective Concentration (MEC)” value in assay [2] is reported as “Moderate (1 mM)”. With `CCCOC(=O)C(N)Cc1ccnc(Br)c1` (stereo not shown) [Code 654], the “post-emergency herbicidal activity (Activity Index: plant's development vs Control)” value in assay [1] is on record as “Strong (From 25 to 50)”. In assay [2], the “Minimal Effective Concentration (MEC)” value is given as “Strong (0.1 mM)”. For the molecule `NC(Cc1cncs1)C(=O)O` (stereo not shown) [Code 520], the “post-emergency herbicidal activity (Activity Index: plant's development vs Control)” value in assay [1] is “Weak (More than 75)”. The “Minimal Effective Concentration (MEC)” value in assay [2] is recorded as “Strong (0.1 mM)”.

Take `NC(Cc1ccsc1Cl)C(=O)O` (stereo not shown) [Code 516]: the “post-emergency herbicidal activity (Activity Index: plant's development vs Control)” value in assay [1] is reported as “Maximal (Less than 15)”. In addition, in assay [2], the “Minimal Effective Concentration (MEC)” value was “Maximal (0.01 mM and less)”. For the molecule `Cc1cncc(CC(N)C(=O)O)c1` (stereo not shown) [Code 606], the “post-emergency herbicidal activity (Activity Index: plant's development vs Control)” value in assay [1] is on record as “Weak (More than 75)”. Also, the “Minimal Effective Concentration (MEC)” value in assay [2] is recorded as “Weak (More than 1 mM)”. As for `COC(=O)C(N)Cc1cc(Cl)sc1Cl` (stereo not shown) [Code 568], in assay [1], the “post-emergency herbicidal activity (Activity Index: plant's development vs Control)” value is reported as “Maximal (Less than 15)”. Consider `Cc1sc(Cl)cc1CC(N)C(=O)O` (stereo not shown) [Code 559], for which the “post-emergency herbicidal activity (Activity Index: plant's development vs Control)” value in assay [1] was “Moderate (From 50 to 75)”. Still for that read-out and setting: the value for `CCCCOC(=O)C(Cc1nc(Cl)sc1Cl)NC(C)=O` (stereo not shown) [Code 554] was “Maximal (Less than 15)”.

For `NC(Cc1ccsc1Br)C(=O)O` (stereo not shown) [Code 560], the “post-emergency herbicidal activity (Activity Index: plant's development vs Control)” value in assay [1] was “Strong (From 25 to 50)”. Still for that read-out and setting: the value for `Cl.Cn1cc(CC(N)C(=O)O)nn1` (stereo not shown) [Code 771] was “Weak (More than 75)”.

For the molecule `CCCCOCCOC(=O)C(Cc1nc(Cl)sc1Cl)NC(C)=O` (stereo not shown) [Code 551], the “post-emergency herbicidal activity (Activity Index: plant's development vs Control)” value in assay [1] is on record as “Maximal (Less than 15)”.

As to `Cc1nnc(CC(N)C(=O)O)n1C.Cl` (stereo not shown) [Code 773], the “post-emergency herbicidal activity (Activity Index: plant's development vs Control)” value in assay [1] is “Weak (More than 75)”. As for `Cl.NC(Cc1n[nH]c2ccccc12)C(=O)O` (stereo not shown) [Code 599], the “Minimal Effective Concentration (MEC)” value in assay [2] was “Maximal (0.01 mM and less)”.

On to `NC(Cc1ccsc1)C(=O)NCC(=O)O` (stereo not shown) [Code 548] (H-[ξ3Thi]-Gly-OH), for which, in assay [1], the “post-emergency herbicidal activity (Activity Index: plant's development vs Control)” value is “Strong (From 25 to 50)”. In the case of `NC(Cc1cc(C(F)(F)F)cs1)C(=O)O` (stereo not shown) [Code 510], the “post-emergency herbicidal activity (Activity Index: plant's development vs Control)” value in assay [1] is “Strong (From 25 to 50)”. With `CCCCOCCOCCOC(=O)C(N)Cc1cn[nH]n1` (stereo not shown) [Code 775], the “post-emergency herbicidal activity (Activity Index: plant's development vs Control)” value in assay [1] was “Maximal (Less than 15)”. Regarding `NC(Cc1csc(Cl)c1)C(=O)O` (stereo not shown) [Code 518], the “post-emergency herbicidal activity (Activity Index: plant's development vs Control)” value in assay [1] was “Strong (From 25 to 50)”. For the molecule `CCCC(=O)NC(Cc1nc(Cl)sc1Cl)C(=O)OCC` (stereo not shown) [Code 550], the “post-emergency herbicidal activity (Activity Index: plant's development vs Control)” value in assay [1] is recorded as “Maximal (Less than 15)”.

Take `N[C@@H](Cc1cn[nH]c1C(F)(F)F)C(=O)O` [Code 774]: the “post-emergency herbicidal activity (Activity Index: plant's development vs Control)” value in assay [1] is reported as “Very Strong (From 15 to 25)”.

Turning to `Cl.Cn1nnc(CC(N)C(=O)O)n1` (stereo not shown) [Code 772], the “post-emergency herbicidal activity (Activity Index: plant's development vs Control)” value in assay [1] is reported as “Moderate (From 50 to 75)”.
